Bridge positions count the residues as written; N and C are the ends. Square brackets hold non-standard residues; d marks the D form. Peptide text beside a SMILES is read from it. * marks the point of attachment. ξ: configuration not given here. Bip = N[C@@H](Cc1ccc(-c2ccccc2)cc1)C(=O)O; Cha = N[C@@H](CC1CCCCC1)C(=O)O; Thr(3ξ) = CC(O)[C@H](N)C(=O)O; Carboxymethyl = O=C(O)C*; Orn = NCCC[C@H](N)C(=O)O; Aun = NCCCCCCCCCCC(=O)O; Dab = NCC[C@H](N)C(=O)O; Dap = NC[C@H](N)C(=O)O
Target: T1, PD-1/PD-L1 interaction (PE-labeled human PD-L1-Ig binding to Jurkat cell line over-expressing human PD-1) (Homo sapiens, UniProt Q15116)
T1 construct: expressed in transfected cells; host or cells: Jurkat
T1 sequence (Q15116 25-288): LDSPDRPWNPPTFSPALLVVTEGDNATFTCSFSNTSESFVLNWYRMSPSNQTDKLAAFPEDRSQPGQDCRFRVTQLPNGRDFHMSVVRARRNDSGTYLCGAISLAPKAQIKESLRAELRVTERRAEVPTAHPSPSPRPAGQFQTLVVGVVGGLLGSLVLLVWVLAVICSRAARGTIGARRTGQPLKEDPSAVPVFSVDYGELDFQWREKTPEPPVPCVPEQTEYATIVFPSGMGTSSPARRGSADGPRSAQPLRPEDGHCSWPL
Assay: Jurkat-PD-1 Cell Binding High-Content Screening Assay (CBA)
Assay type: cell-based
Details: Jurkat cell line over-expressing human PD-1; PE-labeled PD-L1-Ig 20 nM final; read-out: Jurkat hPD1-PDL1 IC50
In short: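 Jurkat cells stably over-expressing human PD-1 were seeded in DMEM with 10% fetal calf serum and pre-incubated with compound for 2 h at 37° C. PE-labeled human PD-L1-Ig was then added at 20 nM final for 1 hour, after which cells were fixed with paraformaldehyde, Hoechst-stained and imaged by high-content microscopy.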

| IC50 | SMILES |
| --- | --- |
| 37.4 nM | CC(C)C[C@H]1NC(=O)[C@H](CCCN)NC(=O)[C@H](Cc2ccc(O)cc2)NC(=O)[C@H](Cc2ccc(-c3ccccc3)cc2)NC(=O)[C@H](C(C)C)NC(=O)[C@H](Cc2c[nH]c3ccccc23)NC(=O)[C@H](CC(=O)O)NC(=O)[C@H](Cc2ccc(OCC(=O)O)cc2)NC(=O)[C@H](C(C)O)NC(=O)CSC[C@@H](C(=O)N[C@@H](CCN)C(=O)NCCCCCCCCCCC(=O)O)NC(=O)[C@H](CN)NC(=O)[C@H](C(C)O)NC(=O)[C@H](CC2CCCCC2)NC(=O)[C@H](CCN)NC1=O (stereo partly drawn) [Compound 3667] ({CH2CO}-[Thr(3ξ)]Y(Carboxymethyl)DWV[Bip]Y[Orn][dL][Dab][Cha][Thr(3ξ)][Dap]C[Dab][Aun]-OH; thioether N-14) |
| 78.3 nM | CC(C)C[C@H]1NC(=O)[C@H](CCCN)NC(=O)[C@H](Cc2ccc(O)cc2)NC(=O)[C@H](Cc2ccc(-c3ccccc3)cc2)NC(=O)[C@H](C(C)C)NC(=O)[C@H](Cc2c[nH]c3ccccc23)NC(=O)[C@H](CC(=O)O)NC(=O)[C@H](Cc2ccc(OCC(=O)O)cc2)NC(=O)[C@H](C(C)O)NC(=O)CSC[C@@H](C(=O)N[C@@H](CCN)C(=O)NCCCCCCCCCCC(=O)O)NC(=O)[C@H](CCCCN)NC(=O)[C@H](C(C)O)NC(=O)[C@H](CC2CCCCC2)NC(=O)[C@H](CCN)NC1=O (stereo partly drawn) [Compound 3668] ({CH2CO}-[Thr(3ξ)]Y(Carboxymethyl)DWV[Bip]Y[Orn][dL][Dab][Cha][Thr(3ξ)]KC[Dab][Aun]-OH; thioether N-14) |

More lines, now with the values behind:

| SMILES | IC50 |
| --- | --- |
| CC(C)C[C@H]1NC(=O)[C@H](CCCN)NC(=O)[C@H](C(C)C)NC(=O)[C@H](Cc2ccc(-c3ccccc3)cc2)NC(=O)[C@H](C(C)C)NC(=O)[C@H](Cc2c[nH]c3ccccc23)NC(=O)[C@H](CC(=O)O)NC(=O)[C@H](Cc2ccc(OCC(=O)O)cc2)NC(=O)[C@H](C(C)O)NC(=O)CSC[C@@H](C(=O)N[C@@H](CCN)C(=O)NCCCCCCCCCCC(=O)O)NC(=O)[C@H](CO)NC(=O)[C@H](C(C)O)NC(=O)[C@H](CC2CCCCC2)NC(=O)[C@H](CCN)NC1=O (stereo partly drawn) [Compound 3664] ({CH2CO}-[Thr(3ξ)]Y(Carboxymethyl)DWV[Bip]V[Orn][dL][Dab][Cha][Thr(3ξ)]SC[Dab][Aun]-OH; thioether N-14) | 27.7 nM |
| CC(C)C[C@H]1NC(=O)[C@H](CCCN)NC(=O)[C@H](C(C)C)NC(=O)[C@H](Cc2ccc(-c3ccccc3)cc2)NC(=O)[C@H](C(C)C)NC(=O)[C@H](Cc2c[nH]c3ccccc23)NC(=O)[C@H](CC(=O)O)NC(=O)[C@H](Cc2ccc(OCC(=O)O)cc2)NC(=O)[C@H](C(C)O)NC(=O)CSC[C@@H](C(=O)N[C@@H](CCN)C(=O)NCCCCCCCCCCC(=O)O)NC(=O)[C@H](Cc2cnc[nH]2)NC(=O)[C@H](C(C)O)NC(=O)[C@H](CC2CCCCC2)NC(=O)[C@H](CCN)NC1=O (stereo partly drawn) [Compound 3665] ({CH2CO}-[Thr(3ξ)]Y(Carboxymethyl)DWV[Bip]V[Orn][dL][Dab][Cha][Thr(3ξ)]HC[Dab][Aun]-OH; thioether N-14) | 23.2 nM |
| CC(C)C[C@H]1NC(=O)[C@H](CCCN)NC(=O)[C@H](C(C)C)NC(=O)[C@H](Cc2ccc(-c3ccccc3)cc2)NC(=O)[C@H](C(C)C)NC(=O)[C@H](Cc2c[nH]c3ccccc23)NC(=O)[C@H](CC(=O)O)NC(=O)[C@H](Cc2ccc(OCC(=O)O)cc2)NC(=O)[C@H](C(C)O)NC(=O)CSC[C@@H](C(=O)N[C@@H](CCN)C(=O)NCCCCCCCCCCC(=O)O)NC(=O)[C@H](CO)NC(=O)[C@H](CCCCN)NC(=O)[C@H](CC2CCCCC2)NC(=O)[C@H](CCN)NC1=O (stereo partly drawn) [Compound 3666] ({CH2CO}-[Thr(3ξ)]Y(Carboxymethyl)DWV[Bip]V[Orn][dL][Dab][Cha]KSC[Dab][Aun]-OH; thioether N-14) | 32 nM |
